Measured values published in ChEMBL document CHEMBL3091384, “Chemical probes to study ADP-ribosylation: synthesis and biochemical evaluation of inhibitors of the human ADP-ribosyltransferase ARTD3/PARP3” (J Med Chem, 2013).

What was measured:
[1] = target: Poly [ADP-ribose] polymerase 2 (Homo sapiens) (UniProt Q9UGN5)
[2] = species: Homo sapiens; experiment: Binding affinity to […] (unknown origin) assessed as change in melting temperature by thermal stabilization assay
[3] = target: Poly [ADP-ribose] polymerase 1 (Homo sapiens, UniProt P09874)
[4] = target: T1, Protein mono-ADP-ribosyltransferase PARP3 (Homo sapiens) (UniProt Q9Y6F1)
T1 sequence (whole entry): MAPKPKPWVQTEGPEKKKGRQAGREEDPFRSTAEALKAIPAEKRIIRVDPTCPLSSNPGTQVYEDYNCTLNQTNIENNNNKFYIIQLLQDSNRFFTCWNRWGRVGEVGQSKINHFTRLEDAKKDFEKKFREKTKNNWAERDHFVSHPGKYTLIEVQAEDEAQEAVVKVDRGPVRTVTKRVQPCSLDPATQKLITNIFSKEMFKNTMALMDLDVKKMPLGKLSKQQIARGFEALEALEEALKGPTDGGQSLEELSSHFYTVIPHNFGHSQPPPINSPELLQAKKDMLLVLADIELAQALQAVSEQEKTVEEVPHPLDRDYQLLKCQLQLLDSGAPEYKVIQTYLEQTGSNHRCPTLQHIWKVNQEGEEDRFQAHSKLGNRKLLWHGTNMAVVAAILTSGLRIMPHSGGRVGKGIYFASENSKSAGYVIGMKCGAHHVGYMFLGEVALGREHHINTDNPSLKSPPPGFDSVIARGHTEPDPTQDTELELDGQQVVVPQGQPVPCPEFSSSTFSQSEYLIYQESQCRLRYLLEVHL

[5] = system: Poly [ADP-ribose] polymerase 14, ARTD8/PARP14 (Homo sapiens)

Poly [ADP-ribose] polymerase 2 (Homo sapiens), sequence (Q9UGN5 whole entry): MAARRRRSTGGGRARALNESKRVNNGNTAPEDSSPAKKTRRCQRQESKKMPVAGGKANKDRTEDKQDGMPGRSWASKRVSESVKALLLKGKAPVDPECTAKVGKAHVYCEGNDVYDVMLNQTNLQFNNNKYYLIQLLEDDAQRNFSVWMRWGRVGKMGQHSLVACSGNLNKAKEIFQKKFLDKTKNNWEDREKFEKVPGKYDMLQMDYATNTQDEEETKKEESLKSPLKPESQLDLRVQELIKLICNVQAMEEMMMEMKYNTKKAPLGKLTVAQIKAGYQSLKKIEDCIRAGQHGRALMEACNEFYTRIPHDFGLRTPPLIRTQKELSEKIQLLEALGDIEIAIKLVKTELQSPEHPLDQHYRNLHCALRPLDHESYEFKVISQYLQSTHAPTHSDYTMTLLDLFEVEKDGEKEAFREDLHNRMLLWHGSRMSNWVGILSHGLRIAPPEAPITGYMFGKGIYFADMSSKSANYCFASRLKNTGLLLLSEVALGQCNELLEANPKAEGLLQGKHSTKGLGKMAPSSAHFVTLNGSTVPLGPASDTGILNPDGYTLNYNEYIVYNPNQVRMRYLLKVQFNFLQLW
Poly [ADP-ribose] polymerase 1, sequence (P09874 whole entry): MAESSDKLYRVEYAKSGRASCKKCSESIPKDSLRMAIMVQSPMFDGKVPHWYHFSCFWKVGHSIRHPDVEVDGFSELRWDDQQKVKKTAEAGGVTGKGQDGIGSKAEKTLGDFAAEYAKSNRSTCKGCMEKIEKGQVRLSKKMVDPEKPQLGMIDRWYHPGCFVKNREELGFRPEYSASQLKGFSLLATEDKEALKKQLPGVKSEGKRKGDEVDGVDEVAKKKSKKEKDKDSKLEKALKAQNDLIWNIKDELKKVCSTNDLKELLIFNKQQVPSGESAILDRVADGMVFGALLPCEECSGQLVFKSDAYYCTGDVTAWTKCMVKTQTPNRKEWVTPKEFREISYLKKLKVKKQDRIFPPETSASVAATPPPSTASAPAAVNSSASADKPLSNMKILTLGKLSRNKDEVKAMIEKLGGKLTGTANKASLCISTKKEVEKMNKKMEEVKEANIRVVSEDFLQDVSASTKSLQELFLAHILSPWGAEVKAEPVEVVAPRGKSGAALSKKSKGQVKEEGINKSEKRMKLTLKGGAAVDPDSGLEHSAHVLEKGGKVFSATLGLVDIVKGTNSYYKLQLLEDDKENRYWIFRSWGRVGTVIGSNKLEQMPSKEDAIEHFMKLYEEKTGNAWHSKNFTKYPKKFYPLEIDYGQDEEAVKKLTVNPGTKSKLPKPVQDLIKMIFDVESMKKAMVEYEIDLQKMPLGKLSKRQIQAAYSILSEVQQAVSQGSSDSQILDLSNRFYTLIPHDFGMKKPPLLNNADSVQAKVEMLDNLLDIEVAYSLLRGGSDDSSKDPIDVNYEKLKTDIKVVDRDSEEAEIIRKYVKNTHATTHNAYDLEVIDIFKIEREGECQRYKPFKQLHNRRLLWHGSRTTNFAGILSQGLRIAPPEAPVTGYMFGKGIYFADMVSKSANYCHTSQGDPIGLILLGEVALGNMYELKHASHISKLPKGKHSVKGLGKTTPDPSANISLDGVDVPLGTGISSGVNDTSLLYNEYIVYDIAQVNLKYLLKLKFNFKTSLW

SMILES: Cc1ccc([C@H](C)NC(=O)CCc2nc3ccccc3c(=O)[nH]2)cc1C
- ΔTm [1]: -0.47 °C
- ΔTm [2]: 0.22 °C
- ΔTm [3]: 0.22 °C
- ΔTm [4]: 0.74 °C
- ΔTm [5]: -0.22 °C

SMILES: O=C(/C=C/c1nc2ccccc2c(=O)[nH]1)N[C@H](CO)Cc1ccccc1
- ΔTm [1]: -0.17 °C
- ΔTm [2]: 0.08 °C
- ΔTm [3]: 0.41 °C
- ΔTm [4]: 6.25 °C
- ΔTm [5]: -0.7 °C

SMILES: O=C(CCc1nc2ccccc2c(=O)[nH]1)N[C@H](CO)c1ccccc1
- ΔTm [1]: 1.64 °C
- ΔTm [2]: 0.82 °C
- ΔTm [3]: 2.83 °C
- ΔTm [4]: 3.57 °C
- ΔTm [5]: 0.38 °C

SMILES: C[C@H](NC(=O)CCc1nc2ccccc2c(=O)[nH]1)c1ccccn1
- ΔTm [2]: 0.13 °C

SMILES: CC(C)(C)CC(NC(=O)CCc1nc2ccccc2c(=O)[nH]1)c1ccccc1 (racemic)
- ΔTm [1]: 0.74 °C
- ΔTm [2]: 0.44 °C
- ΔTm [3]: 0.9 °C
- ΔTm [4]: 5.96 °C
- ΔTm [5]: 0.16 °C

SMILES: CC(NC(=O)CCc1nc2ccccc2c(=O)[nH]1)c1ccccn1 (racemic)
- ΔTm [2]: 0 °C

SMILES: CC[C@H](NC(=O)CCc1nc2ccccc2c(=O)[nH]1)c1ccccc1
- ΔTm [2]: 0.33 °C

SMILES: O=C(CCc1nc2ccccc2c(=O)[nH]1)NC1CCCc2ccccc21 (stereo unspecified)
- ΔTm [1]: 1.11 °C
- ΔTm [2]: 1.83 °C
- ΔTm [3]: 2.44 °C
- ΔTm [4]: 2.28 °C
- ΔTm [5]: 0.24 °C

SMILES: NC(=O)[C@H](Cc1ccccc1)NC(=O)CCc1nc2ccccc2c(=O)[nH]1
- ΔTm [2]: 1.08 °C

SMILES: COc1ccccc1CNC(=O)CCc1nc(O)c2ccccc2n1
- ΔTm [1]: 1.14 °C
- ΔTm [2]: 0.54 °C
- ΔTm [3]: 1.45 °C
- ΔTm [4]: 2.96 °C

SMILES: C[C@H](NC(=O)CCc1nc2ccccc2c(=O)[nH]1)c1ccccc1F
- ΔTm [1]: -0.46 °C
- ΔTm [2]: 0.12 °C
- ΔTm [3]: 0.36 °C
- ΔTm [4]: 0.42 °C
- ΔTm [5]: 0.12 °C

SMILES: CON(C)C(=O)[C@H](Cc1ccccc1)NC(=O)CCc1nc2ccccc2c(=O)[nH]1
- ΔTm [1]: 0.33 °C
- ΔTm [2]: 0.11 °C
- ΔTm [3]: 1.37 °C
- ΔTm [4]: 5.94 °C
- ΔTm [5]: 0.32 °C

SMILES: O=C(CCCc1nc2ccccc2c(=O)[nH]1)NC(c1ccccc1)c1ccccc1
- ΔTm [1]: 0.53 °C
- ΔTm [2]: 0.41 °C
- ΔTm [3]: 0.44 °C
- ΔTm [4]: 0.09 °C
- ΔTm [5]: 0.02 °C

SMILES: C[C@H](NC(=O)Cc1nc2ccccc2c(=O)[nH]1)c1ccccc1
- ΔTm [1]: -0.01 °C
- ΔTm [2]: 0.01 °C
- ΔTm [3]: 0.31 °C
- ΔTm [4]: 0.43 °C
- ΔTm [5]: 0.04 °C

SMILES: C[C@@H](NC(=O)Cc1nc2ccccc2c(=O)[nH]1)c1ccccc1
- ΔTm [1]: -0.25 °C
- ΔTm [2]: 0.05 °C
- ΔTm [3]: 0.37 °C
- ΔTm [4]: 0.63 °C
- ΔTm [5]: -0.04 °C

SMILES: O=C(CCc1nc2ccccc2c(=O)[nH]1)NCc1ccccc1O
- ΔTm [1]: 1.3 °C
- ΔTm [2]: 0.7 °C
- ΔTm [3]: 2.79 °C
- ΔTm [4]: 6.31 °C
- ΔTm [5]: -0.27 °C

SMILES: C[C@H](NC(=O)CCc1nc2ccccc2c(=O)[nH]1)c1ccccc1
- ΔTm [2]: 0.13 °C

SMILES: O=C(CCc1nc2ccccc2c(=O)[nH]1)NCc1ccc([N+](=O)[O-])cc1
- ΔTm [1]: 0.53 °C
- ΔTm [2]: 0.97 °C
- ΔTm [3]: 4 °C
- ΔTm [4]: 3.29 °C
- ΔTm [5]: -0.11 °C

SMILES: C[C@@H](NC(=O)CCc1nc2cc(Cl)ccc2c(=O)[nH]1)c1ccccc1
- ΔTm [1]: 1.28 °C
- ΔTm [2]: 0.43 °C
- ΔTm [3]: 0.92 °C
- ΔTm [4]: 0.16 °C
- ΔTm [5]: 0.05 °C

SMILES: C[C@@H](NC(=O)CCCc1nc2ccccc2c(=O)[nH]1)c1ccccc1
- ΔTm [1]: 0.21 °C
- ΔTm [2]: 1.37 °C
- ΔTm [3]: 1.56 °C
- ΔTm [4]: 4.27 °C
- ΔTm [5]: -0.05 °C

SMILES: O=C(CCCc1nc2ccccc2c(=O)[nH]1)N[C@H](CO)c1ccccc1
- ΔTm [1]: 1.84 °C
- ΔTm [2]: 1.05 °C
- ΔTm [3]: 2.9 °C
- ΔTm [4]: 3.22 °C
- ΔTm [5]: 0.53 °C

SMILES: O=C(CCc1nc2cc(Cl)ccc2c(=O)[nH]1)N[C@H](CO)c1ccccc1
- ΔTm [1]: 0.98 °C
- ΔTm [2]: 0.36 °C
- ΔTm [3]: 0.76 °C
- ΔTm [4]: 0.5 °C
- ΔTm [5]: -0.25 °C

SMILES: COC(=O)[C@H](Cc1ccccc1)NC(=O)CCc1nc2ccccc2c(=O)[nH]1
- ΔTm [2]: 0.5 °C

SMILES: CC[C@@H](CO)NC(=O)CCc1nc2ccccc2c(=O)[nH]1
- ΔTm [2]: 0.35 °C

SMILES: O=C(CCc1nc2ccccc2c(=O)[nH]1)NCc1ccc(OC(F)F)cc1
- ΔTm [1]: 1.35 °C
- ΔTm [2]: 0.96 °C
- ΔTm [3]: 3.39 °C
- ΔTm [4]: 0.78 °C
- ΔTm [5]: 0.31 °C

SMILES: O=C(CCc1nc2cc(Cl)ccc2c(=O)[nH]1)NC(c1ccccc1)c1ccccc1
- ΔTm [1]: 0.83 °C
- ΔTm [2]: 0.2 °C
- ΔTm [3]: 0.11 °C
- ΔTm [4]: 0.35 °C
- ΔTm [5]: 0.82 °C

SMILES: O=C(CCc1nc2ccccc2c(=O)[nH]1)NCCc1ccccc1
- ΔTm [1]: 1.57 °C
- ΔTm [2]: 0.49 °C
- ΔTm [3]: 2.83 °C
- ΔTm [4]: 6.23 °C
- ΔTm [5]: 0.2 °C
